Experimental data reported in patent US10471177B2, “Surface modified biological materials” (Orthobond Corporation, priority 2011, dated 2019).

Experiment: Stability of gentamicin in 0.25M HCl under autoclave conditions
Assay type: physicochemical
Conditions: earlier studies

gentamicin
loss of gentamicin detection: No significant loss
